Laboratory results published in ChEMBL document CHEMBL4177722, “Small molecule inhibitors of anthrax edema factor” (Bioorg Med Chem Lett, 2018).

Legend:
[1] = biological target: T1, Inhibitor of nuclear factor kappa-B kinase subunit beta (Homo sapiens) (UniProt O14920); test: Inhibition of human IKKbeta at 10 uM by ADP-Glo kinase assay
T1 sequence (whole entry): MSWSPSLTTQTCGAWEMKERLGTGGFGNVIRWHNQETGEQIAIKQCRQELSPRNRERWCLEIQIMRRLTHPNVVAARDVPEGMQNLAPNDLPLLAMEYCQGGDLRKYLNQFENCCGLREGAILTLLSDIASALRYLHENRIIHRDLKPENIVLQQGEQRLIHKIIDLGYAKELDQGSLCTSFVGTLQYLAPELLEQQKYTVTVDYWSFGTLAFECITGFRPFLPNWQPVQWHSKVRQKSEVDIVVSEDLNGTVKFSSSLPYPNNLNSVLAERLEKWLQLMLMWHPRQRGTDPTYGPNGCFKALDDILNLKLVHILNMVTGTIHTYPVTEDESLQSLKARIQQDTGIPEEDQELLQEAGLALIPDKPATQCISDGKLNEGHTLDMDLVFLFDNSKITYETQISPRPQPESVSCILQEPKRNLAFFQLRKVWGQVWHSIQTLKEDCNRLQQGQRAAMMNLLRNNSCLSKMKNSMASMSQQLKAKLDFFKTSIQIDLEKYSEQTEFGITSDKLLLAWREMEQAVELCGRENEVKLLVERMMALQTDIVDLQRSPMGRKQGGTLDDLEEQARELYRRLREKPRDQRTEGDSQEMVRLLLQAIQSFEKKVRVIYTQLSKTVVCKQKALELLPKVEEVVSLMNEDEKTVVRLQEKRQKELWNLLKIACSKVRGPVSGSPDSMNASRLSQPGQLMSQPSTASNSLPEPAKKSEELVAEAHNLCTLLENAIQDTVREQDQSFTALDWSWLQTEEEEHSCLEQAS

[2] = biological target: Mitogen-activated protein kinase 14 (Homo sapiens) (UniProt Q16539); test: Inhibition of human p38alpha at 10 uM by ADP-Glo kinase assay
Chain of Mitogen-activated protein kinase 14 (Homo sapiens) (Q16539 whole entry): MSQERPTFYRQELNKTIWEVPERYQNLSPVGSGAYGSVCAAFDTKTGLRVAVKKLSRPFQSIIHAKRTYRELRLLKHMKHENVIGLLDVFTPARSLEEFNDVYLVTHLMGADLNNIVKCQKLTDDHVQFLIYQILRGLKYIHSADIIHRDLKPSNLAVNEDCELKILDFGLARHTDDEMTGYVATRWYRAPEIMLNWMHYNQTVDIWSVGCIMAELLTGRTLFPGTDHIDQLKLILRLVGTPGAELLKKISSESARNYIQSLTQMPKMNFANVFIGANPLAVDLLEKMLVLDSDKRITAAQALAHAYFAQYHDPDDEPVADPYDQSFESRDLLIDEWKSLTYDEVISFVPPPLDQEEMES

[3] = biological target: T2, Calmodulin-sensitive adenylate cyclase (Bacillus anthracis) (UniProt P40136); test: Inactivation of Bacillus anthracis edema factor assessed as Kinact/Ki ratio in presence of CaM incubated for 10 to 240 mins by EnzChek pyrophosphate assay relative to FSBA
T2 sequence (whole entry): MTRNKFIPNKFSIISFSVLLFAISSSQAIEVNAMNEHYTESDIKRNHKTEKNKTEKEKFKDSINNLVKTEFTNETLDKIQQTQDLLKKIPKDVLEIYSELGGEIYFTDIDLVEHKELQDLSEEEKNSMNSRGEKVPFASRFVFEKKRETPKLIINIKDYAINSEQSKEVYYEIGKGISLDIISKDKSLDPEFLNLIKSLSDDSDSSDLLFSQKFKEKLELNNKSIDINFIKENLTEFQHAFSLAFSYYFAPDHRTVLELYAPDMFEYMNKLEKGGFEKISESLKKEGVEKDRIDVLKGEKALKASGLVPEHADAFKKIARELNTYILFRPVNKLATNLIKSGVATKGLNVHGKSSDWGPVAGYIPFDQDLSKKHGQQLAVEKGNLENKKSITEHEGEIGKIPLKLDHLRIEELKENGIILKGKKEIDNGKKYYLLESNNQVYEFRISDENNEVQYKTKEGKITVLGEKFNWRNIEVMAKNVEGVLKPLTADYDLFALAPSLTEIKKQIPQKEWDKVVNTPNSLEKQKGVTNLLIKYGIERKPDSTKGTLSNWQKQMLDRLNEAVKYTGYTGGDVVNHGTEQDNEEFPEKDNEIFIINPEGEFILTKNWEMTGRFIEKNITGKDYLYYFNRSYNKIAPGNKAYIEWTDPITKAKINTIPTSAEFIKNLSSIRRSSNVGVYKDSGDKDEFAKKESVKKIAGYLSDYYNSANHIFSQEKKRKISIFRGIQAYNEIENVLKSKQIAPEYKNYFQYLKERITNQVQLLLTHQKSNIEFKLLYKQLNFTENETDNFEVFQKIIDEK

[4] = biological target: T3, Calmodulin-sensitive adenylate cyclase (Bacillus anthracis, UniProt P40136); test: Inactivation of Bacillus anthracis edema factor in presence of CaM incubated for 10 to 240 mins by EnzChek pyrophosphate assay
T3 sequence (P40136 whole entry): T2 sequence (whole entry)

[5] = biological target: Misshapen-like kinase 1 (Homo sapiens) (UniProt Q8N4C8); test: Inhibition of human MINK at 10 uM by ADP-Glo kinase assay
Chain of Misshapen-like kinase 1 (Homo sapiens) (Q8N4C8 whole entry, looked up): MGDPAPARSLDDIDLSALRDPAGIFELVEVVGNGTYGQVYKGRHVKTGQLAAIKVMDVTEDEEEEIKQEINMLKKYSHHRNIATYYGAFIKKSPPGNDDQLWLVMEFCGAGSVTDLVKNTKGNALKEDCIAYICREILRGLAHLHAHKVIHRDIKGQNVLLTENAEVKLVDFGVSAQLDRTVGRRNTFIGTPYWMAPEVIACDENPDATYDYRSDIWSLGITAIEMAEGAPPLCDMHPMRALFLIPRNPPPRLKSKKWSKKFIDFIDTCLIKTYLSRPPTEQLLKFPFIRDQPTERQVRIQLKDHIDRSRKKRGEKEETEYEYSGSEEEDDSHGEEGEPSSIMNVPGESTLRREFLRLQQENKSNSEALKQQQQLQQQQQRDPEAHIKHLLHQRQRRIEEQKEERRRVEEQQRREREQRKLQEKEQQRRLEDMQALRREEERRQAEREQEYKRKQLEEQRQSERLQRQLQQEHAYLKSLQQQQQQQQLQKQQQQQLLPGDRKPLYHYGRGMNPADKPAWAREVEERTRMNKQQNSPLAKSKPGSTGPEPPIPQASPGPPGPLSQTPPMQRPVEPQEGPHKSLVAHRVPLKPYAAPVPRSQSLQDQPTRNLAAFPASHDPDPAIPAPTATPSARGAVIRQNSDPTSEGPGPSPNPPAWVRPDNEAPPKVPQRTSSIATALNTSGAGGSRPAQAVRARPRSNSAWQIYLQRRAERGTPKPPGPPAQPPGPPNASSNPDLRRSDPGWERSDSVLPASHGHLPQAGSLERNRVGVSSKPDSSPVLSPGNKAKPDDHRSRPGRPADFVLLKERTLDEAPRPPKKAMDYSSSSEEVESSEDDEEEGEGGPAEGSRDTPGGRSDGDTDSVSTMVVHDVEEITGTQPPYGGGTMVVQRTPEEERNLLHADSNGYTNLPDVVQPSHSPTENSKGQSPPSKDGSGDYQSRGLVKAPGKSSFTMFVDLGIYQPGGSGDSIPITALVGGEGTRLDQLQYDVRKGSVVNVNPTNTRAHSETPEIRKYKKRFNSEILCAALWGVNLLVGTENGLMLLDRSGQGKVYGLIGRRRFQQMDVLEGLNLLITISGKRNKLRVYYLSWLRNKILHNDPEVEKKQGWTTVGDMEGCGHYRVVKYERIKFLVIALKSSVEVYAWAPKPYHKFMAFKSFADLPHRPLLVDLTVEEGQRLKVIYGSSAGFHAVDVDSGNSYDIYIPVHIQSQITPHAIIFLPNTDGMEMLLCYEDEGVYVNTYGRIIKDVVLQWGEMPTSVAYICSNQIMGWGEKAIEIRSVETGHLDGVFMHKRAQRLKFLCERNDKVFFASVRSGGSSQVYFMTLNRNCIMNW

[6] = biological target: T2, Calmodulin-sensitive adenylate cyclase (Bacillus anthracis); test: Inactivation of Bacillus anthracis edema factor assessed as Kinact/Ki ratio in presence of CaM incubated for 10 to 240 mins by EnzChek pyrophosphate assay
[7] = biological target: Interleukin-1 receptor-associated kinase 1 (Homo sapiens) (UniProt P51617); test: Inhibition of human IRAK at 10 uM by ADP-Glo kinase assay
Chain of Interleukin-1 receptor-associated kinase 1 (Homo sapiens) (P51617 whole entry, looked up): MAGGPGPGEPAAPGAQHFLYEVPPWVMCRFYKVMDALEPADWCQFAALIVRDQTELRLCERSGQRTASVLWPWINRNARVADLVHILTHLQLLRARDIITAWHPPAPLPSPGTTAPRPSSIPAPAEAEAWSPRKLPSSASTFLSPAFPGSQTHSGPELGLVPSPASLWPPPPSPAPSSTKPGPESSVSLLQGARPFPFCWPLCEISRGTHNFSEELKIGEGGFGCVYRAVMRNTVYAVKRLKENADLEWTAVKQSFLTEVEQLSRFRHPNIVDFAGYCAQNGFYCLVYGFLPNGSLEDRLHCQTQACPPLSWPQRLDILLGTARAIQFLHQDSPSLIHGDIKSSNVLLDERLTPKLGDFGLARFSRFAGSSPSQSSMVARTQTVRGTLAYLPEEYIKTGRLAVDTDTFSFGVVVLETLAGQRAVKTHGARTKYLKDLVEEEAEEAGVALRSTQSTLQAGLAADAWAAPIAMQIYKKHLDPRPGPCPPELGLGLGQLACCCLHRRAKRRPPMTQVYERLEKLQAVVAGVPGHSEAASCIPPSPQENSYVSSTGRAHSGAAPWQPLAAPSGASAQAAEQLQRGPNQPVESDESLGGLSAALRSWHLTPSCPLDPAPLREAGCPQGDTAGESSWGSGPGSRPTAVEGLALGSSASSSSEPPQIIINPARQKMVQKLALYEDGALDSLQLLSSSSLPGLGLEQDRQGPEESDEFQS

[8] = biological target: T4, Calcium/calmodulin-dependent protein kinase type IV (Homo sapiens) (UniProt Q16566); test: Inhibition of human CAMK4 at 10 uM by ADP-Glo kinase assay
T4 sequence (whole entry): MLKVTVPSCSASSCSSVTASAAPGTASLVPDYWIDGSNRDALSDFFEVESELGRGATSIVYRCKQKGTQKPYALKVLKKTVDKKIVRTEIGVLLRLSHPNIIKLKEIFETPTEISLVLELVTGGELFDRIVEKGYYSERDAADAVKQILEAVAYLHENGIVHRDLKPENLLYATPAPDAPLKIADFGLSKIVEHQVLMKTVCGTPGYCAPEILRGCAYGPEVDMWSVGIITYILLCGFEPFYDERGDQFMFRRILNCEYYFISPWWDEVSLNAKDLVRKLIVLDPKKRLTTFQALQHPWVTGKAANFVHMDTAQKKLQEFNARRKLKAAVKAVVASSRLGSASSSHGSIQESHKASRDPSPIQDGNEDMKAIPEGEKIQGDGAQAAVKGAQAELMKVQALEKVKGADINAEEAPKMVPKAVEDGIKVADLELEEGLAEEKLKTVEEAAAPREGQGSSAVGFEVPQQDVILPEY

[9] = biological target: Casein kinase I isoform alpha (Homo sapiens) (UniProt P48729); test: Inhibition of human CK1a1 at 10 uM by ADP-Glo kinase assay
Chain of Casein kinase I isoform alpha (Homo sapiens) (P48729 2-337 limits assumed): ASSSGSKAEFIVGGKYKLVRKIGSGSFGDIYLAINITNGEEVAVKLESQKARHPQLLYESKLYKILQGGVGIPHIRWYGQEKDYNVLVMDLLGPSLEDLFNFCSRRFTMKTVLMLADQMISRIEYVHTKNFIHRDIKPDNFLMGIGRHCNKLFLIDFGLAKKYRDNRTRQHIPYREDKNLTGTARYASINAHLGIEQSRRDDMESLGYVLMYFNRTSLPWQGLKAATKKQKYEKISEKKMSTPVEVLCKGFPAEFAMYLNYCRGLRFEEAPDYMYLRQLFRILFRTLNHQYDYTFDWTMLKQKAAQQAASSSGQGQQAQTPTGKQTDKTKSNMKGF

[10] = biological target: T2, Calmodulin-sensitive adenylate cyclase (Bacillus anthracis); test: Inactivation of Bacillus anthracis edema factor assessed as inactivation rate constant in presence of CaM incubated for 10 to 240 mins by EnzChek pyrophosphate assay
[11] = biological target: RAC-alpha serine/threonine-protein kinase (Homo sapiens) (UniProt P31749); test: Inhibition of human AKT1 at 10 uM by ADP-Glo kinase assay
Chain of RAC-alpha serine/threonine-protein kinase (Homo sapiens) (P31749 whole entry, canonical isoform): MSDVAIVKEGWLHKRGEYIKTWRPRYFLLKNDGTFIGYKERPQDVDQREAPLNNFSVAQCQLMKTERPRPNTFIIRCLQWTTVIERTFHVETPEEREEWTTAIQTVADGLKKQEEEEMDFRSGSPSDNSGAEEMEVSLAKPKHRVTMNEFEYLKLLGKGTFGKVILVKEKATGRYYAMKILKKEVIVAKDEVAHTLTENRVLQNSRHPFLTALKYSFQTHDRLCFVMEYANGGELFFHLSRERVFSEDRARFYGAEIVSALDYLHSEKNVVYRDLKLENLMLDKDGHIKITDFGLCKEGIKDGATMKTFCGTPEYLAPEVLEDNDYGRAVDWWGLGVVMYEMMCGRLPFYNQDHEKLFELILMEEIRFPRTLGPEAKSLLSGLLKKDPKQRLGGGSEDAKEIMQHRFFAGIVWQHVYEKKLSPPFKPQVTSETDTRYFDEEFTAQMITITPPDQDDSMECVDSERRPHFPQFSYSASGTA

[12] = biological target: Casein kinase I isoform gamma-1 (Homo sapiens) (UniProt Q9HCP0); test: Inhibition of human CK1g1 at 10 uM by ADP-Glo kinase assay
Chain of Casein kinase I isoform gamma-1 (Homo sapiens) (Q9HCP0 whole entry, looked up, canonical isoform): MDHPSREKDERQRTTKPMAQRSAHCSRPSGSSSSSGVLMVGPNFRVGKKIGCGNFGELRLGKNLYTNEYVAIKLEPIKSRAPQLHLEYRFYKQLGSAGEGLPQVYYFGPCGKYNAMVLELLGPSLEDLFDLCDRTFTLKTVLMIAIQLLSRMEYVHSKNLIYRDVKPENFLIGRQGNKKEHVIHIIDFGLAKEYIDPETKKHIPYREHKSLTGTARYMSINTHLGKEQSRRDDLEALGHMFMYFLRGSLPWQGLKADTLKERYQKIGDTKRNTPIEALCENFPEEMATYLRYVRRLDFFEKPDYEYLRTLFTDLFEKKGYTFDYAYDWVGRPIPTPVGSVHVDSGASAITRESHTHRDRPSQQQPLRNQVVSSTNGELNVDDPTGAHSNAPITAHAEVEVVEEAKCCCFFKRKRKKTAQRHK

Cc1nc(N)c2ccn(C3CCN(C(=O)c4ccc(S(=O)(=O)F)cc4)CC3)c2n1
inhibition [1]: 0%
inhibition [2]: 2%
Ratio [3]: 234
Ki [4]: 700 nM
inhibition [5]: 17%
Ratio [6]: 3140
inhibition [7]: 0%
inhibition [8]: 27%
inhibition [9]: 0%
Kinact [10]: 0.129 min⁻¹
inhibition [11]: 24%
inhibition [12]: 16%

Nc1ncnc2c1ccn2C1CCN(C(=O)c2ccc(S(=O)(=O)F)cc2)CC1
inhibition [1]: 0%
inhibition [2]: 6%
Ratio [3]: 1050
Ki [4]: 300 nM
inhibition [5]: 5%
Ratio [6]: 14200
inhibition [7]: 10%
inhibition [8]: 7%
inhibition [9]: 0%
Kinact [10]: 0.282 min⁻¹
inhibition [11]: 20%
inhibition [12]: 23%
